Patent US20210238169A1, “PROCESS FOR PREPARING A COMPOUND OF FORMULA (XIII)” (PULMOCIDE LIMITED, priority 2014, published 2021)
Values after ≈ are worked out from the molar mass of the structure shown. Read-outs that look alike come from different tables or passages of the source.

Columns and labels:
[1] = system: Penicillium chrysogenum; assay: Fungus panel screening, CLSI broth microdilution; assay type: cell-based; details: strain ATCC9480, visual inspection (CLSI); for MIC: read-out: MIC100
Experimental: (§1) Fungus panel screening was conducted by Eurofins Panlabs Inc. The MIC and MIC50 values of the test articles were determined following the guidelines of the Clinical and Laboratory Standards Institute, broth microdilution methods for yeast (CLSI M27-A2), (CLSI, 2002) and for filamentous fungi (CLSI M38-A), (CLSI, 2008).

[2] = system: Candida albicans; assay: Fungus panel screening, CLSI broth microdilution; assay type: cell-based; details: for MIC50 / MIC: Candida albicans; for MIC: read-out: MIC100
Experimental: as §1

[3] = system: Candida glabrata; assay: Fungus panel screening, CLSI broth microdilution; assay type: cell-based; details: Nakaseomyces glabratus; for MIC: read-out: MIC100
Experimental: as §1

[4] = system: Rhizopus oryzae; assay: Fungus panel screening, CLSI broth microdilution; assay type: cell-based; details: Rhizopus arrhizus, strain ATCC11145, visual inspection (CLSI); for MIC: read-out: MIC100
Experimental: as §1

[5] = system: Trichophyton rubrum; assay: Fungus panel screening, CLSI broth microdilution; assay type: cell-based; details: strain ATCC10218, visual inspection (CLSI); for MIC: read-out: MIC100
Experimental: as §1

[6] = system: Chaetomium globosum; assay: Fungus panel screening, CLSI broth microdilution; assay type: cell-based; details: strain ATCC44699, visual inspection (CLSI); for MIC: read-out: MIC100
Experimental: as §1

[7] = system: Aspergillus fumigatus isolates; assay: Broth microdilution assay of planktonic fungal growth (modified EUCAST); assay type: cell-based; details: Aspergillus fumigatus
Experimental: This assay was conducted using a modified method published by EUCAST (Rodriguez-Tudela et al., 2008). Spores of Aspergillus fumigatus (NCPF2010, NCPF7010 (Methionine 220 mutation), NCPF7099 (Glycine G54 mutation) from Public Health England, Wiltshire; TR34/L98H mutants from St Louis Hospital, Paris, France) were cultured in Sabouraud dextrose agar for 3 days. A stock spore suspension was prepared from a Sabouraud dextrose agar culture by washing with PBS-tween (10 mL; PBS containing 0.05% Tween-20, 100 U/mL Penicillin and 100 U/mL Streptomycin). The spore count was assessed using a Neubauer haemocytometer and then adjusted to 10^6 spores/mL with PBS. A working suspension of spores (2×10^5 spores/mL) was prepared in filter sterilised, BSA MOPS RPMI-1640 (50 mL; RPMI-1640 containing 2 mM L-glutamine, 0.5% BSA, 2% glucose, 0.165 M MOPS, buffered to pH 7 with NaOH). For the assay, BSA MOPS RPMI-1640 (50 μL/well) was added throughout the 384-well plate (Catalogue number 353962, BD Falcon, Oxford, UK) first. Test compounds (0.5 μL DMSO solution) were then added in quadruplicate using an Integra VIAFLO 96 (Integra, Zizers, Switzerland), and mixed well using a plate mixer. Subsequently 50 μL of the working spore suspension prepared above was added to all wells except non-spore control wells. For non-spore control wells, BSA MOPS-RPMI solution (50 μL/well) was added instead. The plate was covered with a plastic lid, and incubated (35° C. with ambient air) for 48 hr. The OD of each well at 530 nm was determined using a multi-scanner (Clariostar: BMG, Buckinghamshire, UK). The percentage inhibition for each well was calculated and the MIC50, MIC75 and MIC90 values were calculated from the concentration-response curve generated for each test compound.

[8] = Fungus panel screening, CLSI broth microdilution; assay type: cell-based, Aspergillus pullulans; details: Aspergillus
Experimental: as §1

[9] = system: Aspergillus fumigatus isolates; assay: Broth microdilution assay of planktonic fungal growth (modified EUCAST); assay type: cell-based; details: Aspergillus fumigatus; isolate NCPF7100, broth microdilution; read-out: MIC75
[10] = system: Aspergillus fumigatus (NCPF2010); assay: Resazurin-microtitre assay of planktonic fungal growth; assay type: cell-based; details: Aspergillus fumigatus; for MIC: read-out: Planktonic fungal growth MIC75
Experimental: This assay was conducted using a modified, published method (Monteiro et al., 2012). Spores of Aspergillus fumigatus (NCPF2010, Public Health England, Wiltshire) were cultured in Sabouraud dextrose agar for 3 days. A stock spore suspension was prepared from a Sabouraud dextrose agar culture by washing with PBS-tween (10 mL; PBS containing 0.05% Tween-20, 100 U/mL Penicillin and 100 U/mL Streptomycin). The spore count was assessed using a Neubauer haemocytometer and, using PBS, adjusted to 10^6 spores/mL. A working suspension of spores (10^4 spores/mL) was prepared in filter sterilised MOPS RPMI-1640 (50 mL; RPMI-1640 containing 2 mM L-glutamine, 2% glucose and 0.165 M MOPS, buffered to pH 7 with NaOH). Resazurin sodium salt (100 μL of 1% solution; Sigma-Aldrich, Dorset, UK) was added to the spore suspension and mixed well. The spore suspension-resazurin mixture (100 μL/well) was added to 384-well plates (Catalogue number 353962, BD Falcon, Oxford, UK). Simultaneously, test compounds (0.5 μL DMSO solution) were added to 100 μL of the spore-resazurin mixture in quadruplicate to provide a final DMSO solution of 0.5% using an Integra VIAFLO 96 (Intergra, Zizers, Switzerland). For non-spore control wells, MOPS-RPMI-resazurin solution (100 μL) was added instead of the spore-resazurin mixture. The plate was covered with a Breathe Easier membrane (Catalogue No Z763624, Sigma-Aldrich, Dorset, UK), and incubated (35° C., 5% CO2) until fluorescence in the inoculated wells was double that of the control wells (around 24 hr). The fluorescence of each well (545 nm (excitation)/590 nm (emission), gain 800, focal height 5.5 mm) was determined using a multi-scanner (Clariostar: BMG, Buckinghamshire, UK). The percentage inhibition for each well was calculated and the MIC50, MIC75 and MIC90 values were calculated from the concentration-response curve generated for each test compound.

[11] = ATCC10231, strain ATCC10231, visual inspection (CLSI)
[12] = strain 20183.073, visual inspection (CLSI)
[13] = strain 20186.025, visual inspection (CLSI)
[14] = strain 20240.047, visual inspection (CLSI)
[15] = strain ATCC10231, visual inspection (CLSI)
[16] = strain ATCC36583, visual inspection (CLSI)
[17] = strain R363, visual inspection (CLSI)
[18] = isolate NCPF7099, broth microdilution, read-out: MIC75
[19] = strain ATCC9348, visual inspection (CLSI), read-out: MIC50
[20] = strain ATCC9348, visual inspection (CLSI), read-out: MIC100

Compound | MIC50 [1] [mg/L] | MIC [1] [mg/L] | MIC50 [2, 11] [mg/L] | MIC50 [2, 12] [mg/L] | MIC50 [2, 13] [mg/L] | MIC50 [2, 14] [mg/L] | MIC [2, 14] [mg/L] | MIC [2, 15] [mg/L] | MIC50 [3, 16] [mg/L] | MIC [3, 16] [mg/L] | MIC50 [3, 17] [mg/L] | MIC [3, 17] [mg/L] | MIC50 [4] [mg/L] | MIC [4] [mg/L] | MIC50 [5] [mg/L] | MIC [5] [mg/L] | MIC50 [6] [mg/L] | MIC [6] [mg/L] | MIC ([7]; read-out: MIC75) [µM] | MIC [7, 18] [µM] | further results
Cc1cc(N2CCN(c3ccc(C(=O)Nc4ccc(F)cc4)cc3)CC2)ccc1OC[C@@H]1CO[C@@](Cn2cncn2)(c2ccc(F)cc2F)C1 [Compound (I), 4-(4-(4-(((3R,5R)-5-((1H-1,2,4-triazol-1-yl)methyl)-5-(2,4-difluorophenyl)tetrahydrofuran-3-yl)methoxy)-3-methylphenyl)piperazin-1-yl)-N-(4-fluorophenyl)benzamide] | 0.031 (≈ 0.0454 µM) | > 8 | 0.13 (≈ 0.19 µM) | 0.5 (≈ 0.732 µM) | > 8 | 0.031 (≈ 0.0454 µM) | > 8 | > 8 | 0.5 (≈ 0.732 µM) | > 8 | 0.5 (≈ 0.732 µM) | > 8 | 0.063 (≈ 0.0923 µM) | 2 (≈ 2.93 µM) | < 0.008 | 0.031 (≈ 0.0454 µM) | 0.063 (≈ 0.0923 µM) | > 8 | 0.0567 (≈ 0.0387 µg/mL) | 0.0165 (≈ 0.0113 µg/mL) | MIC ([7]; NCPF2010, read-out: MIC75): 0.0136 µM (≈ 0.00929 µg/mL); MIC50 [8, 19]: > 8 mg/L; MIC [8, 20]: > 8 mg/L; MIC [9]: 0.0197 µM (≈ 0.0135 µg/mL); MIC50 [10]: 0.00198 µM (≈ 0.00135 µg/mL); MIC [10]: 0.00502 µM (≈ 0.00343 µg/mL)
CC[C@@H]([C@H](C)O)n1ncn(-c2ccc(N3CCN(c4ccc(OC[C@@H]5CO[C@@](Cn6cncn6)(c6ccc(F)cc6F)C5)cc4)CC3)cc2)c1=O [Posaconazole] | 0.063 (≈ 0.0899 µM) | 0.13 (≈ 0.186 µM) | 0.13 (≈ 0.186 µM) | 0.25 (≈ 0.357 µM) | > 8 | 0.031 (≈ 0.0442 µM) | > 8 | > 8 | 0.5 (≈ 0.713 µM) | > 8 | 0.5 (≈ 0.713 µM) | > 8 | 0.13 (≈ 0.186 µM) | > 8 | < 0.008 | 0.031 (≈ 0.0442 µM) | 0.13 (≈ 0.186 µM) | 0.25 (≈ 0.357 µM) | 0.15 (≈ 0.105 µg/mL) | 0.112 (≈ 0.0785 µg/mL) | MIC100 [2, 13]: >8.0 mg/L; MIC50 [8, 19]: 0.25 mg/L (≈ 0.357 µM); MIC [8, 20]: 1 mg/L (≈ 1.43 µM); MIC [9]: 0.0715 µM (≈ 0.0501 µg/mL); MIC50 [10]: 0.00364 µM (≈ 0.00255 µg/mL); MIC [10]: 0.00694 µM (≈ 0.00486 µg/mL)
C[C@@H](c1ncncc1F)[C@](O)(Cn1cncn1)c1ccc(F)cc1F [Voriconazole] | 1 (≈ 2.86 µM) | 2 (≈ 5.73 µM) | 0.25 (≈ 0.716 µM) | 4 (≈ 11.5 µM) | > 8 | 0.031 (≈ 0.0887 µM) | > 8 | > 8 | 0.25 (≈ 0.716 µM) | > 8 | > 8 | > 8 | 8 (≈ 22.9 µM) | > 8 | < 0.008 | 0.063 (≈ 0.18 µM) | 0.5 (≈ 1.43 µM) | 1 (≈ 2.86 µM) | > 2.86 | 0.0967 (≈ 0.0338 µg/mL) | MIC100 [2, 13]: >8.0 mg/L; MIC50 ([8]; ATCC9348): > 8 mg/L; MIC ([8]; ATCC9348, read-out: MIC100): > 8 mg/L; MIC [9]: 0.596 µM (≈ 0.208 µg/mL); MIC50 [10]: 0.0908 µM (≈ 0.0317 µg/mL); MIC [10]: 0.168 µM (≈ 0.0587 µg/mL)
